Data taken from article PMC3445262 (International immunopharmacology, 2011).

Tests used:
[1] = biological target: CB2 receptor mutant W5.43(194)Y (Homo sapiens, UniProt P34972, W194Y); type: binding; settings: W5.43(194)Y vs CB2 WT
[2] = biological target: CB2 WT receptor in HEK293 cells (Homo sapiens, UniProt P34972); type: cell-based
[3] = biological target: CB2 W194Y mutant receptor in HEK293 cells (Homo sapiens, UniProt P34972, W194Y); type: cell-based
[4] = biological target: CB2 W194F mutant receptor in HEK293 cells (Homo sapiens, UniProt P34972, W194F); type: cell-based
CB2 W194F mutant receptor in HEK293 cells, sequence (P34972 whole entry W194F): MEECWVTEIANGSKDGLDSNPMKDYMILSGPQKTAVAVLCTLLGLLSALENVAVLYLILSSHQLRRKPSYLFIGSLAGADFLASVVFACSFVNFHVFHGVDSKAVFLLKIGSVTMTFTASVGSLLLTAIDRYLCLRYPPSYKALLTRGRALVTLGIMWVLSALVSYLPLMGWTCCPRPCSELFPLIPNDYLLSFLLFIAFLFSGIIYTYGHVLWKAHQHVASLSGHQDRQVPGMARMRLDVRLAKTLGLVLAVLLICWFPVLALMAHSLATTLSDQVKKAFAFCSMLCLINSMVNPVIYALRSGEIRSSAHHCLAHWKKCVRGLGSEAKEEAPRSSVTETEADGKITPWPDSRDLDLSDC

[5] = biological target: CB2 W194A mutant receptor in HEK293 cells (Homo sapiens, UniProt P34972, W194A); type: cell-based
CB2 W194A mutant receptor in HEK293 cells, sequence (P34972 whole entry W194A): as the sequence (P34972 whole entry W194F) above, with F194A counted along it

CB1 W5.43(280)A [6] = settings: cited from earlier work
CB1 W5.43(280)A [7] = settings: cited from earlier work; remark: listed apart in the source

CB2 receptor mutant W5.43(194)Y, sequence (P34972 whole entry W194Y): as the sequence (P34972 whole entry W194F) above, with F194Y counted along it
CB2 W194Y mutant receptor in HEK293 cells, sequence (P34972 whole entry W194Y): as the sequence (P34972 whole entry W194F) above, with F194Y counted along it
CB2 WT receptor in HEK293 cells, sequence (P34972 whole entry): as the sequence (P34972 whole entry W194F) above, with F194W counted along it

With `CCCCCCC(C)(C)c1ccc([C@@H]2C[C@H](O)CC[C@H]2CCCO)c(O)c1` [CP55940] the “Reduction of binding affinity by W5.43(194)Y mutation compared with wild-type” value [1] was “no effect”.
Work on `C=C[C@@]1(C)CC(=O)[C@]2(O)[C@@]3(C)[C@@H](O)CCC(C)(C)[C@@H]3[C@H](O)[C@H](OC(C)=O)[C@@]2(C)O1` [Forskolin, forskolin] yielded an EC50 [2] of 1.32 µM, an EC50 [3] of 2.02 µM and an EC50 [4] of 1.81 µM. It also gave an EC50 [5] of 2.42 µM.
In the case of `Cc1c(C(=O)c2cccc3ccccc23)c2cccc3c2n1[C@H](CN1CCOCC1)CO3` [WIN55212-2], the “Reduction of binding by CB1 W5.43(280)A mutation” value (CB1 W5.43(280)A [6]) is given as 16.8 fold and the “Reduction of WIN55212-2 stimulated GTPγS binding by CB1 W5.43(280)A mutation” value (CB1 W5.43(280)A [7]) is given as 245 fold.
In the case of SR144528, the “Reduction of binding affinity by W5.43(194)Y mutation compared with wild-type” value [1] is reported as 5 fold.
